Reference: patent US9526680B2, “Method for searching for malodor control agent, malodor control agent, and malodor control method” (Kao Corporation, priority 2010, dated 2016)

What was measured:
[1] = Sensory evaluation test of hexanoic acid odor inhibition; assay type: in vivo; settings: for Intensity of odor: hexanoic acid odor, malodor alone rated as 5, 0 to 10 points, test substance diluted 100 times with propylene glycol, three panelists; for Inhibition of hexanoic acid odor (in words): sensory test, test substance diluted 100 times with propylene glycol (FIG. 5, Table 4)
Description: Cotton balls were introduced into a glass bottle (Hakuyo Glass Co., Ltd. No. 11, capacity 110 ml), and hexanoic acid diluted 100 times with propylene glycol, nonanoic acid diluted 10 times with propylene glycol, or isovaleric acid diluted 1000 times with propylene glycol, as a malodor, and a test substance were added dropwise in an amount of […] to the cotton balls. The glass bottle was left to stand overnight at room temperature, and the odor molecules were sufficiently volatilized in the glass bottle. A sensory evaluation test was carried out by a panel of three panelists (5 panelists for isovaleric acid), and while the intensity of odor in the case of adding dropwise the malodor alone was rated as 5, the intensity of the malodor in the case of incorporating a test substance was evaluated on the basis of a system of 20 grades from 0 point to 10 points (0.5 points per grade).
Regarding the test substance, florhydral (Givaudan SA), bourgeonal (Givaudan SA), hydroxycitronellal (Givaudan SA, International Flavors & Fragrances, Inc., and the like), 4-isopropylcyclohexanecarbaldehyde (synthesized according to a method described in JP-A-2-188549), 4-(2-methoxyphenyl)-2-methyl-2-butanol (JP-A-9-111281), florosa (Givaudan SA), isocyclocitral (Givaudan SA, International Flavors & Fragrances, Inc., and the like), tripral (International Flavors & Fragrances, Inc.), and Pollenal II (Kao Corp.), which had been diluted 100 times with propylene glycol, were used for hexanoic acid; florhydral that had been diluted 10 times with propylene glycol was used for nonanoic acid; and florhydral that had been diluted 1000 times with propylene glycol was used for isovaleric acid.

OR51E1 = molecular target: T1, OR51E1 (Homo sapiens, UniProt Q8TCB6); test: Luciferase reporter gene assay, OR51E1 expressed in HEK293 cells; assay type: cell-based; settings: for Inhibition ratio of OR51E1 response: response to hexanoic acid, test substance added together with hexanoic acid, HEK293
T1 construct: expressed in transfected cells; host or cells: HEK293
T1 sequence (Q8TCB6 1-318): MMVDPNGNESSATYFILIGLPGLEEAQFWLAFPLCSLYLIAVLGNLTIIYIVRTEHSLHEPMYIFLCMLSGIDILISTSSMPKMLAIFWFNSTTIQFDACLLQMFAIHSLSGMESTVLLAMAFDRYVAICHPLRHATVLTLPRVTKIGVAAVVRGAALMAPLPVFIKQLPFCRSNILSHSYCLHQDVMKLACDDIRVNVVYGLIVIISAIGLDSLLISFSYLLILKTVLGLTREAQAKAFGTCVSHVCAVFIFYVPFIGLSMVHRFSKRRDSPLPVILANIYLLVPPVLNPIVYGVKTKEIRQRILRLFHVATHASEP
Description: (§1) Cloning of human olfactory receptors was performed based on the sequence information registered in GenBank, through PCR with human genomic DNA female (G1521: Promega) as a template. Each of the genes amplified through PCR was inserted into a pENTR vector (Invitrogen) according to an instruction manual. Then, the gene-inserted vector was digested with NotI and AscI, and the obtained fragments were inserted into NotI and AscI sites located downstream of the Flag-Rho tag sequence in the pME18S vector.
(§2) Each of the 350 types of human olfactory receptors was expressed in HEK293 cells. A reaction solution having a composition shown in Table 2 was prepared on a clean bench, and left to stand for 15 minutes. The solution was dispensed to each well of a 96-well plate (BD). Subsequently, […] cells (100 μL, 3×10^5 cells/cm^2) were seeded in each well and cultured for 24 hours in an incubator at 37° C. and under 5% CO2 conditions.
(§3) The olfactory receptor expressed in HEK293 cell was conjugated with cell-intrinsic Gas to activate adenylate cyclase, and thereby the level of intracellular cAMP was increased. For the measurement of the response to odor in this study, the luciferase reporter gene assay was used, in which an increase in the amount of intracellular cAMP was monitored by using the emission value originating from firefly luciferase gene (fluc2P-CRE-hygro) as an indicator. Furthermore, a gene product obtained by fusing renilla luciferase gene in the downstream of CMV promoter (hRluc-CMV) was simultaneously introduced, and this was used as an internal standard for correcting an error in the transgenesis efficiency or the number of cells. The medium was removed from the culture prepared in the above-described section 3) by using a Pipetman, and 75 μl of a solution containing an odor substance (1 mM hexanoic acid or 300 μM nonanoic acid) prepared in CD293 medium (Invitrogen) was added thereto. The cells were cultured for 4 hours in a CO2 incubator, and the luciferase gene was sufficiently expressed in the cells. For the measurement of luciferase activity, the measurement was carried out by using a Dual-Glo™ luciferase assay system (Promega) according to the operation manual of the product. A value calculated by dividing the emission value, derived from a firefly luciferase induced by the stimulation with an odor substance, by the emission value in cells that were not-stimulated with an odor substance, was designated as a fold increase, and used as an index of response intensity.
(§4) OR2W1, OR10A6, OR51E1, OR51I2, and OR51L1 were respectively expressed in HEK293 cells by the same method as that used in Example 1, and a luciferase assay was carried out. In the luciferase assay, hexanoic acid was used as the odorous substance, and test substances were added together with hexanoic acid. The response of the olfactory receptors to hexanoic acid was measured, and a decrease in the receptor response to the addition of test substances was evaluated.
(§5) The inhibition ratios of the receptor response to test substances were calculated as follows. The emission value (Y) obtained from the cells in which the same receptors were introduced but no odor stimulation was conducted, was subtracted from the emission value derived from firefly luciferase (X) induced by odor stimulation with hexanoic acid alone. Similarly, the emission value (Y) obtained from the cells in which no odor stimulation was conducted, was subtracted from the emission value (Z) caused by stimulation with a mixture of hexanoic acid and a test substance. By the following calculation formula, the inhibitory activity of the test substance to receptor response was calculated based on the increment of the emission value (X−Y) caused by stimulation of hexanoic acid alone. Multiple independent experiments were performed in duplicate, and the average of each experiment was obtained. Inhibition ratio (%)={1−(Z−Y)/(X−Y)}×100 […]

OR51L1 = molecular target: T2, OR51L1 (Homo sapiens, UniProt Q8NGJ5); test: Luciferase reporter gene assay, OR51L1 expressed in HEK293 cells; assay type: cell-based; settings: for Inhibition ratio of OR51L1 response: response to hexanoic acid, test substance added together with hexanoic acid, HEK293
T2 construct: expressed in transfected cells; host or cells: HEK293
T2 sequence (Q8NGJ5 1-315): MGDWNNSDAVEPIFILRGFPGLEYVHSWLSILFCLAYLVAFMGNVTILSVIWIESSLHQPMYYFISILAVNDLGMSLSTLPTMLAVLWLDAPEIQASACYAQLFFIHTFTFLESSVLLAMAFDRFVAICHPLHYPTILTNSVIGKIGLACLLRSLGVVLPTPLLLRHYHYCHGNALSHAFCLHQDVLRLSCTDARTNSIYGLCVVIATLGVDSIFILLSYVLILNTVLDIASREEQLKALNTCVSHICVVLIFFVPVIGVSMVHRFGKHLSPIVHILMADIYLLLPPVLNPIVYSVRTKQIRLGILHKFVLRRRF
Description: as §1, §2, §3, §4, §5

OR51I2 = molecular target: T3, OR51I2 (Homo sapiens, UniProt Q9H344); test: Luciferase reporter gene assay, OR51I2 expressed in HEK293 cells; assay type: cell-based; settings: for Inhibition ratio of OR51I2 response: response to hexanoic acid, test substance added together with hexanoic acid, HEK293
T3 construct: expressed in transfected cells; host or cells: HEK293
T3 sequence (Q9H344 1-312): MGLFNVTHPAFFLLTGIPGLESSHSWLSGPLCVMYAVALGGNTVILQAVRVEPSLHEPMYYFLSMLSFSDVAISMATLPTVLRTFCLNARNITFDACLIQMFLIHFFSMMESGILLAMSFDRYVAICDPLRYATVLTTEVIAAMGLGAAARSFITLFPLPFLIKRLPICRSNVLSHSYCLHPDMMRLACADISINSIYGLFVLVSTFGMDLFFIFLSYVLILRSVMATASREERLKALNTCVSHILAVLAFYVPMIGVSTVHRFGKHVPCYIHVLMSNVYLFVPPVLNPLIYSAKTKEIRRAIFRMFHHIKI
Description: as §1, §2, §3, §4, §5

OR2W1 = molecular target: T4, OR2W1 (Homo sapiens, UniProt Q9Y3N9); test: Luciferase reporter gene assay, OR2W1 expressed in HEK293 cells; assay type: cell-based; settings: for Inhibition ratio of OR2W1 response: response to hexanoic acid, test substance added together with hexanoic acid, HEK293
T4 construct: expressed in transfected cells; host or cells: HEK293
T4 sequence (Q9Y3N9 1-320): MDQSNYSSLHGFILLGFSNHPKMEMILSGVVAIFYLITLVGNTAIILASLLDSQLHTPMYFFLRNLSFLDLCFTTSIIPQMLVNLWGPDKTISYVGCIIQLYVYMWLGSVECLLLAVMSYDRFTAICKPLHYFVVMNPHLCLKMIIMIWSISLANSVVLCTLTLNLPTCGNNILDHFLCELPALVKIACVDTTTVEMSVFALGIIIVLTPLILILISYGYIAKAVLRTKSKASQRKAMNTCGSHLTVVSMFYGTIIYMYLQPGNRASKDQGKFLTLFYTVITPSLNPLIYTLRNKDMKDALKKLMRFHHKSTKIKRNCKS
Description: as §1, §2, §3, §4, §5

[2] = fold increase of luciferase emission, 1 mM hexanoic acid or 300 μM nonanoic acid, or concentration series up to 1000 μM
[3] = 1 mM hexanoic acid, test substance 3, 10, 30, 100, 300 μM (FIG. 4)

| SMILES | Inhibition ratio of OR51E1 response (OR51E1) | Inhibition ratio of OR51I2 response (OR51I2) | Inhibition ratio of OR2W1 response (OR2W1) | Intensity of odor [1] | Inhibition of hexanoic acid odor (in words) [1] | further results |
| --- | --- | --- | --- | --- | --- | --- |
| CC(C=O)C1CCCCC1 (centres unmarked) [Pollenal II, 2-cyclohexylpropanal] | 2 (Inhibition ratio: 20% to 50%) | – | – | 2.08 | inhibit the hexanoic acid odor | – |
| CC1=CC(C)C(C=O)CC1 (centres unmarked) [Tripral, 2,4-dimethyl-3-cyclohexane-1-carboxyaldehyde] | – | – | – | 2.00 | inhibit the hexanoic acid odor | Inhibition ratio of OR51L1 response (OR51L1): 2 (Inhibition ratio: 20% to 50%) |
| CC(C)c1ccc(C=O)cc1 [Cuminaldehyde, 4-isopropylbenzaldehyde] | – | 2 (Inhibition ratio: 20% to 50%) | – | – | – | – |
| CC(C)CC(=O)O [isovaleric acid, reference compound] | – | – | – | – | – | Response of OR51E1 to the odor substance (OR51E1; [2]): concentration-dependent response; Response of OR51I2 to the odor substance (OR51I2; [2]): concentration-dependent response |
| CC1(C)CCCC2=C1CC(C=O)CC2 (centres unmarked) [Cyclemon A, 1,2,3,4,5,6,7,8-octahydro-8,8-dimethyl-2-naphthalenecarboxyaldehyde] | – | – | 1 (Inhibition ratio: 50% or higher) | – | – | – |
| CC(C)C1CCC(C)(CO)CC1 (centres unmarked) [4-Isopropyl-1-methylcyclohexylmethanol, 4-isopropyl-1-methylcyclohexylmethanol] | – | 2 (Inhibition ratio: 20% to 50%) | – | – | – | – |
| COc1ccccc1CCC(C)(C)O [4-(2-Methoxyphenyl)-2-methyl-2-butanol, 4-(2-methoxyphenyl)-2-methyl-2-butanol] | – | – | 1 (Inhibition ratio: 50% or higher) | 3.88 | inhibit the hexanoic acid odor | – |
| CC(C=O)Cc1ccc(C(C)(C)C)cc1 (stereo not drawn) [Lilial, p-tert-butyl-α-methylhydrocinnamaldehyde] | – | 2 (Inhibition ratio: 20% to 50%) | 2 (Inhibition ratio: 20% to 50%) | – | – | – |
| CC(C=O)Cc1ccc(C(C)C)cc1 (centres unmarked) [Cyclamen aldehyde, 3-(4-isopropylphenyl)-2-methylpropanal] | – | 2 (Inhibition ratio: 20% to 50%) | – | – | – | – |
| CC(C)C1CCC(C=O)CC1 (centres unmarked) [4-Isopropylcyclohexanecarbaldehyde, 4-isopropylcyclohexanecarbaldehyde] | – | 2 (Inhibition ratio: 20% to 50%) | – | 2.17 | inhibit the hexanoic acid odor | – |
| Cc1cccc(CC(C)(C)CO)c1 [Majantol, 2,2-dimethyl-3-(3-methylphenyl)propanol] | – | – | 2 (Inhibition ratio: 20% to 50%) | – | – | – |

More lines, main results first:

| Inhibition ratio of OR51E1 response (OR51E1) | Inhibition ratio of OR51I2 response (OR51I2) | Inhibition ratio of OR2W1 response (OR2W1) | SMILES | Intensity of odor [1] | Inhibition of hexanoic acid odor (in words) [1] | further results |
| --- | --- | --- | --- | --- | --- | --- |
| 1 (Inhibition ratio: 50% or higher) | 1 (Inhibition ratio: 50% or higher) | 1 (Inhibition ratio: 50% or higher) | CC(C)(C)c1ccc(CCC=O)cc1 [Bourgeonal, 3-(4-tert-butylphenyl)propanal] | 3.13 | markedly inhibited | Inhibition of OR51L1 response to hexanoic acid (in words) (OR51L1; [3]): in a concentration-dependent manner; Inhibition ratio of OR51L1 response (OR51L1): 1 (Inhibition ratio: 50% or higher); Inhibition of OR2W1 response to hexanoic acid (in words) (OR2W1; [3]): in a concentration-dependent manner; Inhibition of OR51E1 response to hexanoic acid (in words) (OR51E1; [3]): in a concentration-dependent manner; Inhibition of OR51I2 response to hexanoic acid (in words) (OR51I2; [3]): in a concentration-dependent manner |
| 1 (Inhibition ratio: 50% or higher) | 1 (Inhibition ratio: 50% or higher) | – | COC(C)(C)CCCC(C)CC=O (centres unmarked) [Methoxycitronellal, 7-methoxy-3,7-dimethyloctanal] | – | – | Inhibition ratio of OR51L1 response (OR51L1): 1 (Inhibition ratio: 50% or higher) |
| 2 (Inhibition ratio: 20% to 50%) | – | – | CC(C)=CCCC(C)CC=O (centres unmarked) [Citronellal, 3,7-dimethyl-6-octenal] | – | – | – |
| 2 (Inhibition ratio: 20% to 50%) | 2 (Inhibition ratio: 20% to 50%) | – | CC(CC=O)CCCC(C)(C)O (centres unmarked) [Hydroxycitronellal, 3,7-dimethyl-7-hydroxyoctanal] | 2.25 | inhibit the hexanoic acid odor | Inhibition ratio of OR51L1 response (OR51L1): 2 (Inhibition ratio: 20% to 50%) |
| – | 2 (Inhibition ratio: 20% to 50%) | – | CC(C)Cc1ccc(CC(C)C=O)cc1 (centres unmarked) [Suzaral, 3-(4-isobutylphenyl)-2-methyl-propionaldehyde] | – | – | – |
